Consider 13 compounds from US9334267B2, “RAF inhibitor compounds” (Deciphera Pharmaceuticals, LLC, priority 2012, dated 2016).

Molecules are shown by their SMILES. A value given as a limit tells only on which side of the number the result lay.

One test has as its system HT-29 cells. The experiment in a line: HT-29 cell proliferation assay (resazurin). It is filed as cell-based. Conditions: Homo sapiens, V600E mutation, read-out: Cell Proliferation Inhibition IC50, nM HT-29. The method, then: HT-29 cells (catalog #HTB-38) are obtained from the American Type Culture Collection (ATCC, Manassas, Va.). Briefly, cells are grown in McCoy's 5A supplemented with 10% characterized fetal bovine serum (Invitrogen, Carlsbad, Calif.), and 1% Penicillin/Streptomycin/L-Glutamine at 37 degrees Celsius, 5% CO2, and 95% humidity. Cells are allowed to expand until reaching 75-90% confluency at which point they are subcultured or harvested for assay use. A serial dilution of test compound is dispensed into a 384-well black clear bottom plate in triplicate. One thousand two-hundred fifty cells are added per well in 50 μL complete growth medium in the 384-well plate. Plates are incubated for 67 hours at 37 degrees Celsius, 5% CO2, and 95% humidity. At the end of the incubation period, 10 μL of a 440 μM solution of resazurin (Sigma, St. Louis, Mo.) in PBS is added to each well of the plate and plates are incubated for an additional 5 hours at 37 degrees Celsius, 5% CO2, and 95% humidity. Plates are read on a Synergy2 reader (Biotek, Winooski, Vt.) using an excitation of 540 nm and an emission of 600 nm. Data is analyzed using Prism software (Graphpad, San Diego, Calif.) to calculate IC50 values.
The A375, HT-29, and Colo-205 cells (ATCC) harbor a V600E mutation.

The next test deals with T1, human wild type c-KIT (Homo sapiens, UniProt P10721).
T1 construct: GST (N); made in house
As to the kind of experiment: Enzymatic assay of c-Kit kinase activity (poly E4Y phosphorylation, coupled PK/LDH). The test is classed as biochemical. The source says:
c-Kit is an important oncogene, and its overexpression and genetic mutations often occur in melanoma and gastrointestinal stromal tumor (GIST) patients. In the c-Kit enzymatic assay, the phosphorylation of poly E4Y by ATP catalyzed by human c-Kit is monitored spectrophotometrically. The ADP produced from the kinase reaction is coupled to pyruvate kinase/lactate dehydrogenase (PK/LDH) reactions where NAD is formed from pyruvate and NADH. NADH can be detected by absorbance at 340 nm, as described above for enzymatic assays of kinase activities of B-Raf, C-Raf and B-Raf mutations.
The assay reaction mixture includes 6 nM human wild type c-KIT, 1 mg/mL Poly (Glu,Tyr) (Sigma), 1 mM Phosphoenol-pyruvate, 280 μM NADH, 5 U/3.5 U (per 100 ul) Pyruvate Kinase/Lactate Dehydrogenase, 85 mM Tris, pH 7.5, 17 mM MgCl2, 0.0042% Triton® X-100, 0.005% BSA, 1% DMSO. Test compound is incubated with the reaction mixture for 0.5 hour before adding 200 μM ATP to start the reaction at 30° C.

For another test, the system named is HCT-116 cells. The experiment in a line: HCT-116 cell proliferation assay (resazurin). As to conditions: Homo sapiens, K-Ras mutation B-Raf wild type, read-out: Cell Proliferation Inhibition IC50, nM HCT-116. The test is classed as cell-based.
In the next test the target is T2, human B-Raf V600E (Homo sapiens, UniProt P15056, V600E).
T2 construct: B-RafV600E (residues 433-726 containing V600E mutation) containing an N-terminal purification tag is expressed and purified; made in house
As to the kind of experiment: Enzymatic assay of B-Raf V600E kinase activity (Raf/MEK1 ATPase, coupled PK/LDH, A340). It is filed as biochemical. As to conditions: read-out: Enzyme IC50, nM B-Raf V600E. The method, then: Test compounds are evaluated for their inhibitory activities against one or more of human wild type B-Raf, human wild type C-Raf, human B-Raf V600E, human B-Raf V600E+T529I or human B-Raf V600E+G468A. T529I is a threonine to isoleucine B-Raf gatekeeper mutation and G468A is a B-Raf secondary mutation at G1403C in exon 11. The enzymatic assays of B-Raf, C-Raf and B-Raf mutations evaluate a property of Raf and MEK1 complex, which in the presence of ATP, catalyzes an enhanced ATP hydrolysis (Rominger, et al, Arch. Biochem. Biophys. 2007, 464: 130-137; US Patent Publication No. 2006/0211073). The ADP formed is monitored by the well-known coupled PK/LDH (pyruvate kinase/lactate dehydrogenase) system in the form of NADH oxidation, which can be monitored and detected spectrophotometrically by absorbance at 340 nm (A340; for principal of the method see Schindler et al, Science, 2000, 289: 1938-1942). Raf activated MEK1 ATPase activity is a property shared by all forms of Raf proteins.
B-RafV600E (residues 433-726 containing V600E mutation) containing an N-terminal purification tag is expressed and purified essentially as described previously (Wan et al, Cell, 2004, 116, 855-867).
Test compounds are evaluated for their inhibitory activities against one or more of wild type B-Raf, wild type C-Raf, B-Raf V600E, B-Raf V600E+T529I and B-Raf V600E+G468A. T529I is a B-Raf gatekeeper mutation and G468A is a B-Raf secondary mutation. The enzymatic assays of B-Raf, C-Raf and B-Raf mutations evaluate a property of Raf and MEK1 complex, which in the presence of ATP, catalyzes an enhanced ATP hydrolysis (Rominger, et al, Arch. Biochem. Biophys. 2007, 464: 130-137). The ADP formed is monitored by the well-known coupled PK/LDH (pyruvate kinase/lactate dehydrogenase) system in the form of NADH oxidation, which can be monitored and detected by absorbance at 340 nm (A340; for principal of the method see Schindler et al, Science, 2000, 289: 1938-1942). Raf activated MEK1 ATPase activity is a property shared by all forms of Raf proteins. In the B-Raf wild type enzymatic assay, the reaction mixture contains 1.2 nM B-Raf, 30 nM MEK1, 1000 uM ATP, 3.5 units (per 100 ul) of PK, 5 units (per 100 ul) of LDH, 1 mM phosphoenol pyruvate (PEP), and 280 uM of NADH. In the C-Raf assay, the reaction mixture contains 0.6 nM C-Raf, 26 nM MEK1, 2000 uM ATP, and the same amount of PK, LDH, PEP and NADH as above. In the B-Raf V600E assay, the reaction mixture contains […] B-Raf V600E, 26 nM MEK1, 200 uM ATP and the same amount of PK, LDH, PEP and NADH as above. In the B-RafV600E+T529I assay, the reaction mixture contains 6.2 nM B-Raf V600E+T529I, 30 nM MEK1, 200 uM ATP and the same amount of PK, LDH, PEP and NADH as above. In the B-Raf V600E+G468A assay, the reaction mixture contains 3.5 nM B-Raf, 30 nM MEK1, 200 uM ATP and the same amount of PK, LDH, PEP and NADH as above. All assays are started by mixing the above mixture with test compound and monitoring at A340 continuously for approximately 5 hr. […] In the aforementioned assays, the enzyme constructs can be screened prior to or after cleavage of the N-terminal purification tag.

T1 sequence (P10721 26-976): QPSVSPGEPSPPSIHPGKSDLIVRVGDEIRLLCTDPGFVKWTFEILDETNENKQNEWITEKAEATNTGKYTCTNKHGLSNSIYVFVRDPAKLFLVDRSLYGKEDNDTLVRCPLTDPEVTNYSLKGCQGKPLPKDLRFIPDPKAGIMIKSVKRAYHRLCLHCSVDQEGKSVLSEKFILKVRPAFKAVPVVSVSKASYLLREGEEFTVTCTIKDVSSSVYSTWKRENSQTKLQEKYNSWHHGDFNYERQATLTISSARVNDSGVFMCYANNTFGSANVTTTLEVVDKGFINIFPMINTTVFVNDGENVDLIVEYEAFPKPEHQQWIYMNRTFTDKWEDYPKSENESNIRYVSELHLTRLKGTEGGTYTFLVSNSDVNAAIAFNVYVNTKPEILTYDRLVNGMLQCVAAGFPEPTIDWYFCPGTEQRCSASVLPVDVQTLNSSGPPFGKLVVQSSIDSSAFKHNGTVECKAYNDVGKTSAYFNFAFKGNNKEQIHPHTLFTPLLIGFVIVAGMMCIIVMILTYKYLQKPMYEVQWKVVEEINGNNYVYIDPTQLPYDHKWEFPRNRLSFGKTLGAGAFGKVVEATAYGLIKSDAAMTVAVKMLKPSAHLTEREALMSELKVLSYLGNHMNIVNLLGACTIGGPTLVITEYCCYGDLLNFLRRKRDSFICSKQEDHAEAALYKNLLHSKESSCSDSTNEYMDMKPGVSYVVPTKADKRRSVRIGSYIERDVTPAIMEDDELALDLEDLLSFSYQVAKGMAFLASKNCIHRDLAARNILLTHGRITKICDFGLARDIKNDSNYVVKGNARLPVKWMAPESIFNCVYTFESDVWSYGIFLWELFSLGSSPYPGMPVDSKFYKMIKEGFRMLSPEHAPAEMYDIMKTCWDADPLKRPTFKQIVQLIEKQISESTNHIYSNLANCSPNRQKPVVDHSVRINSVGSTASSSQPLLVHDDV
T2 sequence (P15056 433-726 V600E): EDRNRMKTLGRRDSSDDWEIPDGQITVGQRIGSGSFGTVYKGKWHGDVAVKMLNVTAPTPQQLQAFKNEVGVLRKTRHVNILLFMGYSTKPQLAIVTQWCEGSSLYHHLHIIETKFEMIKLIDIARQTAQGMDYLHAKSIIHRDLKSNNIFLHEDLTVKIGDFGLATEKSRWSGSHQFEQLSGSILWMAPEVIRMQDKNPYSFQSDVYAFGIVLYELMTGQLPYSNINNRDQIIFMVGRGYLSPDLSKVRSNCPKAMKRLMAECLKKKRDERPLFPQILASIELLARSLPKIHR

With `CNc1ncc2cc(-c3cc(NC(=O)NCCC(C)(C)C#N)c(F)cc3C)c(C)nc2n1` [Example 3, 1-(3-Cyano-3-methylbutyl)-3-(2-fluoro-4-methyl-5-(7-methyl-2-(methylamino)pyrido[2,3-d]pyrimidin-6-yl)phenyl)urea], the IC50 with HT-29 cells was < 100 nM; against human wild type c-KIT, < 0.15 µM; in the test on HCT-116 cells it was 100 to 1000 nM; at human B-Raf V600E it was < 150 nM.

With `Cc1cc(F)c(NC(=O)NCCC(C)(C)C)cc1-c1cc2cnc(NCCN(C)C)nc2nc1C` [Example 17, 1-[5-[2-(2-Dimethylaminoethylamino)-7-methyl-pyrido[2,3-d]pyrimidin-6-yl]-2-fluoro-4-methyl-phenyl]-3-(3,3-dimethylbutyl)urea], the IC50 in the test on HT-29 cells is < 100 nM; against human wild type c-KIT, < 0.15 µM; in the test with HCT-116 cells it was 100 to 1000 nM; on human B-Raf V600E it was < 150 nM.

On to `Cc1cc(F)c(NC(=O)NCCC(C)(C)C)cc1-c1cc2cnc(N)nc2nc1C` [Example 20, 1-(5-(2-Amino-7-methylpyrido[2,3-d]pyrimidin-6-yl)-2-fluoro-4-methylphenyl)-3-(3,3-dimethylbutyl)urea], for which the IC50 in the test on HT-29 cells was < 100 nM; against human wild type c-KIT, < 0.15 µM; with HCT-116 cells it was 100 to 1000 nM; on human B-Raf V600E it was < 150 nM.

Consider `Cc1cc(F)c(NC(=O)NCCC(C)(C)C)cc1-c1cc2cnc(NCCO)nc2nc1C` [Example 16, 1-(3,3-Dimethylbutyl)-3-[2-fluoro-5-[2-(2-hydroxyethylamino)-7-methyl-pyrido[2,3-d]pyrimidin-6-yl]-4-methyl-phenyl]urea], for which the IC50 with HT-29 cells was < 100 nM; at human wild type c-KIT, < 0.15 µM; in the test on HCT-116 cells, 100 to 1000 nM; on human B-Raf V600E, < 150 nM.

As to `CNc1ncc2cc(-c3cc(NC(=O)NCCC(C)(C)C)c(F)cc3F)cnc2n1` [Example 36, 1-(2,4-Difluoro-5-(2-(methylamino)pyrido[2,3-d]pyrimidin-6-yl)phenyl)-3-(3,3-dimethylbutyl)urea methanesulfonate], the IC50 is 100 to 1000 nM in the test on HT-29 cells, < 0.15 µM on human wild type c-KIT, 1000 to 10000 nM with HCT-116 cells and < 150 nM at human B-Raf V600E.

Take `CNc1ncc2cc(-c3cc(NC(=O)NC[C@@H](O)C(C)(C)C)c(F)cc3C)cnc2n1` [Example 19, 1-[2-fluoro-4-methyl-5-(2-methylaminopyrido[2,3-d]pyrimidin-6-yl)phenyl]-3-[(2S)-2-hydroxy-3,3-dimethyl-butyl]urea]: the figures for the IC50 in the test with HT-29 cells, with HCT-116 cells and at human B-Raf V600E were 100 to 1000 nM, 1000 to 10000 nM and < 150 nM, respectively.

Regarding `CNc1ncc2cc(-c3ccc(F)c(NC(=O)NCCC(C)(C)C#N)c3)c(C)nc2n1` [Example 13, 1-(3-Cyano-3-methylbutyl)-3-(2-fluoro-5-(7-methyl-2-(methylamino)pyrido[2,3-d]pyrimidin-6-yl)phenyl)urea], the IC50 is 100 to 1000 nM in the test with HT-29 cells, < 0.15 µM on human wild type c-KIT, 1000 to 10000 nM in the test with HCT-116 cells and < 150 nM on human B-Raf V600E.

In the case of `CNc1ncc2cc(-c3cc(NC(=O)NCCC(C)(C)C)c(F)cc3Br)c(C)nc2n1` [Example 32, 1-(4-Bromo-2-fluoro-5-(7-methyl-2-(methylamino)pyrido[2,3-d]pyrimidin-6-yl)phenyl)-3-(3,3-dimethylbutyl)urea], the IC50 with HT-29 cells is < 100 nM; against human wild type c-KIT, < 0.15 µM; with HCT-116 cells, 100 to 1000 nM; at human B-Raf V600E it was < 150 nM.

For the compound `CNc1ncc2cc(-c3cc(NC(=O)NC4CC(C)(C)C4)c(F)cc3C)c(C)nc2n1` [Example 6, 1-(3,3-Dimethylcyclobutyl)-3-(2-fluoro-4-methyl-5-(7-methyl-2-(methylamino)pyrido[2,3-d]pyrimidin-6-yl)phenyl)urea], the IC50 was < 100 nM in the test with HT-29 cells, < 0.15 µM at human wild type c-KIT, 100 to 1000 nM with HCT-116 cells and < 150 nM at human B-Raf V600E.

As to `Cc1cc(F)c(NC(=O)NCCC(C)(C)F)cc1-c1cc2cnc(NCCO)nc2nc1C` [Example 29, 1-(3-Fluoro-3-methylbutyl)-3-(2-fluoro-5-(2-((2-hydroxyethyl)amino)-7-methylpyrido[2,3-d]pyrimidin-6-yl)-4-methylphenyl)urea], the IC50 with HT-29 cells was 100 to 1000 nM; at human wild type c-KIT it was < 0.15 µM; in the test with HCT-116 cells, 1000 to 10000 nM; at human B-Raf V600E, < 150 nM.

As to `CNc1ncc2cc(-c3cc(NC(=O)NCCC(C)(C)C)c(F)cc3C)cnc2n1` [Example 35, 1-(3,3-Dimethylbutyl)-3-[2-fluoro-4-methyl-5-(2-methylaminopyrido[2,3-d]pyrimidin-6-yl)phenyl]urea], the IC50 in the test on HT-29 cells is < 100 nM; on human wild type c-KIT, < 0.15 µM; with HCT-116 cells, 100 to 1000 nM; at human B-Raf V600E, < 150 nM.

For the compound `CNc1ncc2cc(-c3cc(NC(=O)NCCC(C)(C)OC)c(F)cc3C)c(C)nc2n1` [Example 14, 1-(2-Fluoro-4-methyl-5-(7-methyl-2-(methylamino)pyrido[2,3-d]pyrimidin-6-yl)phenyl)-3-(3-methoxy-3-methylbutyl)urea], the IC50 in the test with HT-29 cells was < 100 nM; against human wild type c-KIT, < 0.15 µM; in the test with HCT-116 cells, 100 to 1000 nM; on human B-Raf V600E, < 150 nM.

For the compound `CNc1ncc2cc(-c3cc(NC(=O)NC[C@H](O)C(C)(C)C)c(F)cc3C)cnc2n1` [Example 18, 1-[2-Fluoro-4-methyl-5-(2-methylaminopyrido[2,3-d]pyrimidin-6-yl)phenyl]-3-[(2R)-2-hydroxy-3,3-dimethyl-butyl]urea], the IC50 in the test with HT-29 cells was < 100 nM; with HCT-116 cells it was 100 to 1000 nM; on human B-Raf V600E, < 150 nM.
